Test results reported in article PMC3628895, “Cloning, expression and characterization of an ethanol tolerant GH3 β-glucosidase from Myceliophthora thermophila” (PeerJ, 2013).
Read-outs that look alike come from different tables or passages of the source.

T1: MtBgl3a (Thermothelomyces thermophilus, UniProt G2QDN2)
T1 construct: gene MYCTH_66804
T1 sequence (G2QDN2 18-733): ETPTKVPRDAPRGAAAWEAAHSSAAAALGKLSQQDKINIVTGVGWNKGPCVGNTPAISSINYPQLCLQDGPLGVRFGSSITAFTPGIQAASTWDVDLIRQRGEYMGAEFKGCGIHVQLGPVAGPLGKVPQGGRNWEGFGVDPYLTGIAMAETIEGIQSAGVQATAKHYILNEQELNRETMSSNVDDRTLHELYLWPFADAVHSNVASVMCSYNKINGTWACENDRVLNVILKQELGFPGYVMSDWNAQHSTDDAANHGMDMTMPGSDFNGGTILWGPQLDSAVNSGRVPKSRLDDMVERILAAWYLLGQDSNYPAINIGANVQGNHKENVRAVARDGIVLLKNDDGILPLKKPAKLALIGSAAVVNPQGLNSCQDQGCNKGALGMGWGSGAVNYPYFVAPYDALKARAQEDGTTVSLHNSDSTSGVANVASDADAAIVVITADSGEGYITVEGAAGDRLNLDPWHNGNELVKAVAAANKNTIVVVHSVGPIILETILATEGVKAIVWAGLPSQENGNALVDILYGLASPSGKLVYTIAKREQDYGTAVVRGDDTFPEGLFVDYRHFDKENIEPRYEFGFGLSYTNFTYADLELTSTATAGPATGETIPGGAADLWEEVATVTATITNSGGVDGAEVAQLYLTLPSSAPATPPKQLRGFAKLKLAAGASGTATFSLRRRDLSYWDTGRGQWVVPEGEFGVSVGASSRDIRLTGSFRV


Legend:
MtBgl3a = molecular target: T1, MtBgl3a; assay: p-nitrophenol release, absorbance […] nm; Michaelis-Menten fit (GraFit); type: biochemical
purified protein = substrate: O=[N+]([O-])c1ccc(O[C@@H]2O[C@H](CO)[C@@H](O)[C@H](O)[C@H]2O)cc1; assay: purified protein; conditions: 100 mM citrate-phosphate pH 5.0, 40 °C
[1] = competitive, substrate p-β-NPG, pH 5.0 citrate-phosphate

Molecule	Ki (MtBgl3a; [1]) [µM]	also measured
O=C(O)[C@H](O)[C@@H](O)[C@H](O)[C@H](O)CO [D-gluconic acid]		Ki (MtBgl3a): 22 ± 2 µM
OC[C@H]1OC(O)[C@H](O)[C@@H](O)[C@@H]1O (stereo partly drawn) [D-glucose]	282 ± 100	
OC1OC[C@@H](O)[C@H](O)[C@H]1O (stereo partly drawn) [D-xylose]	30 ± 5	
MtBgl3a (Thermothelomyces thermophilus ATCC 42464) (protein) ETPTKVPRDAPRGAAAWEAAHSSAAAALGKLSQQDKINIVTGVGWNKGPCVGNTPAISSINYPQLCLQDGPLGVRFGSSITAFTPGIQAASTWDVDLIRQRGEYMGAEFKGCGIHVQLGPVAGPLGKVPQGGRNWEGFGVDPYLTGIAMAETIEGIQSAGVQATAKHYILNEQELNRETMSSNVDDRTLHELYLWPFADAVHSNVASVMCSYNKINGTWACENDRVLNVILKQELGFPGYVMSDWNAQHSTDDAANHGMDMTMPGSDFNGGTILWGPQLDSAVNSGRVPKSRLDDMVERILAAWYLLGQDSNYPAINIGANVQGNHKENVRAVARDGIVLLKNDDGILPLKKPAKLALIGSAAVVNPQGLNSCQDQGCNKGALGMGWGSGAVNYPYFVAPYDALKARAQEDGTTVSLHNSDSTSGVANVASDADAAIVVITADSGEGYITVEGAAGDRLNLDPWHNGNELVKAVAAANKNTIVVVHSVGPIILETILATEGVKAIVWAGLPSQENGNALVDILYGLASPSGKLVYTIAKREQDYGTAVVRGDDTFPEGLFVDYRHFDKENIEPRYEFGFGLSYTNFTYADLELTSTATAGPATGETIPGGAADLWEEVATVTATITNSGGVDGAEVAQLYLTLPSSAPATPPKQLRGFAKLKLAAGASGTATFSLRRRDLSYWDTGRGQWVVPEGEFGVSVGASSRDIRLTGSFRV		Km (purified protein): 0.39 ± 0.12 mM
